Measured values reported in ChEMBL document CHEMBL1145844 (J Med Chem, 2003).

molecular target: T1, Delta-type opioid receptor (Homo sapiens, UniProt P41143); assay: Agonistic activity towards Opioid receptor delta 1; type: functional
T1 sequence (P41143 whole entry): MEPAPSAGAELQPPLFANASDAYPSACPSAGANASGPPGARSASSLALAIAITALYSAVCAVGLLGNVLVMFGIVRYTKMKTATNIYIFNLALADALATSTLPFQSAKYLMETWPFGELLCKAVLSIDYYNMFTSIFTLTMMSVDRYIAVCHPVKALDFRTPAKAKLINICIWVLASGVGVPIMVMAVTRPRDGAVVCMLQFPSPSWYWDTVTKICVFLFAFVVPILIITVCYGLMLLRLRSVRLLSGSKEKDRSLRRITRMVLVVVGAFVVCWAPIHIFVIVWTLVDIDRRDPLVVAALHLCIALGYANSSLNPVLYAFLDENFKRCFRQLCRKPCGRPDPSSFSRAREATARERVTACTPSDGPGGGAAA

Q: COc1ccc2c(c1O)[C@]13CCN(C)C(C2)[C@]12CCC(=O)[C@H]3/C(=C/c1ccccc1)C2 was tested. Which EC50 did it give?
A: 0.00419 µM

Q: With COc1ccc2c(c1O)[C@]13CCN(C)C(C2)[C@@]12CC(=C(C)C)[C@@H]3c1[nH]c3ccccc3c1C2 as the compound, how does the EC50 read?
A: 0.211 µM

Q: COc1ccc2c(c1O)[C@]13CCN(C)C(C2)[C@@]12C/C(=C(/C)c1ccccc1)[C@@H]3c1[nH]c3ccccc3c1C2 was tested. Which EC50 did it give?
A: 0.368 µM

Q: Which EC50 does the source give for CN1CC[C@]23c4c5ccc(O)c4O[C@@]2(C)c2[nH]c4ccccc4c2C[C@@]3(C/C=C/c2ccccc2)C1C5 here?
A: 0.0218 µM

molecular target: T2, Mu-type opioid receptor (Homo sapiens, UniProt P35372); assay: % stimulation of [35S]GTP-gamma-S, binding in recombinant human Opioid receptor mu 1 transfected into CHO cells; type: functional, cell-based
T2 sequence (P35372 whole entry): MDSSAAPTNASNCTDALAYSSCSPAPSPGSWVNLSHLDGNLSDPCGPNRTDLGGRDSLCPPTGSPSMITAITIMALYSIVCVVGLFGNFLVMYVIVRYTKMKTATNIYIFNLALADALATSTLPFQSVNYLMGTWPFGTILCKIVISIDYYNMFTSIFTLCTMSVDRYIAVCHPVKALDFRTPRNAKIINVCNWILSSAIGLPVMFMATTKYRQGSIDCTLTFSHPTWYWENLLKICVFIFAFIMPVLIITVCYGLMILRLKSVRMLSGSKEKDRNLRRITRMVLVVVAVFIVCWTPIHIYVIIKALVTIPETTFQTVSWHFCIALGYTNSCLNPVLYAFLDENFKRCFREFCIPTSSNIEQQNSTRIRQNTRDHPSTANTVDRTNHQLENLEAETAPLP

Q: Which Stimulation does the source give for COc1ccc2c(c1O)[C@]13CCN(C)C(C2)[C@]12CCC(=O)[C@H]3/C(=C/c1ccccc1)C2 here?
A: 123%

Q: How did the Stimulation turn out when COc1ccc2c(c1O)[C@]13CCN(C)C(C2)[C@@]12CC(=C(C)C)[C@@H]3c1[nH]c3ccccc3c1C2 was run?
A: 52%

Q: With COc1ccc2c(c1O)[C@]13CCN(C)C(C2)[C@@]12C/C(=C(/C)c1ccccc1)[C@@H]3c1[nH]c3ccccc3c1C2 as the compound, how does the Stimulation read?
A: 144%

Q: For CN1CC[C@]23c4c5ccc(O)c4O[C@@]2(C)c2[nH]c4ccccc4c2C[C@@]3(C/C=C/c2ccccc2)C1C5, which Stimulation is on record?
A: 85%

molecular target: T3, Kappa-type opioid receptor (Homo sapiens, UniProt P41145); assay: % stimulation of [35S]GTP-gamma-S, binding of compound in recombinant human Opioid receptor kappa 1 transfected into CHO cells; type: functional, cell-based
T3 sequence (P41145 whole entry): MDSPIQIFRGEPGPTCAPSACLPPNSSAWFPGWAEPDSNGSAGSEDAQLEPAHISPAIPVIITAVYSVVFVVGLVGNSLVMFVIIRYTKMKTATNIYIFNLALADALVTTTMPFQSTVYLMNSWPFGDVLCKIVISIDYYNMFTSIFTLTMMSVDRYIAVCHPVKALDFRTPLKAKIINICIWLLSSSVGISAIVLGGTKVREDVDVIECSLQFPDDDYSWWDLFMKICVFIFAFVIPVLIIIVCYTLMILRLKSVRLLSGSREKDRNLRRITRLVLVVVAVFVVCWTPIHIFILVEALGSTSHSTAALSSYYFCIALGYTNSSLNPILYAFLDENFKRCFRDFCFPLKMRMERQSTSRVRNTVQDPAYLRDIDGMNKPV

Q: For COc1ccc2c(c1O)[C@]13CCN(C)C(C2)[C@]12CCC(=O)[C@H]3/C(=C/c1ccccc1)C2, which Stimulation is on record?
A: 85%

Q: For COc1ccc2c(c1O)[C@]13CCN(C)C(C2)[C@@]12CC(=C(C)C)[C@@H]3c1[nH]c3ccccc3c1C2, which Stimulation is on record?
A: 44%

Q: COc1ccc2c(c1O)[C@]13CCN(C)C(C2)[C@@]12C/C(=C(/C)c1ccccc1)[C@@H]3c1[nH]c3ccccc3c1C2 was tested. Which Stimulation did it give?
A: 97%

Q: With CN1CC[C@]23c4c5ccc(O)c4O[C@@]2(C)c2[nH]c4ccccc4c2C[C@@]3(C/C=C/c2ccccc2)C1C5 as the compound, how does the Stimulation read?
A: 60%

molecular target: T1, Delta-type opioid receptor; assay: % stimulation of [35S]GTP-gamma-S, binding in recombinant human Opioid receptor delta 1 transfected into CHO cells; type: functional, cell-based

Q: With COc1ccc2c(c1O)[C@]13CCN(C)C(C2)[C@]12CCC(=O)[C@H]3/C(=C/c1ccccc1)C2 as the compound, how does the Stimulation read?
A: 80%

Q: For COc1ccc2c(c1O)[C@]13CCN(C)C(C2)[C@@]12C/C(=C(/C)c1ccccc1)[C@@H]3c1[nH]c3ccccc3c1C2, which Stimulation is on record?
A: 168%

Q: CN1CC[C@]23c4c5ccc(O)c4O[C@@]2(C)c2[nH]c4ccccc4c2C[C@@]3(C/C=C/c2ccccc2)C1C5 was tested. Which Stimulation did it give?
A: 79%

molecular target: Opioid receptors; mu & delta (Homo sapiens, UniProt P41143+P35372); assay: Ratio of mu/delta-opioid receptors Binding affinity; type: protein assay

Q: With COc1ccc2c(c1O)[C@]13CCN(C)C(C2)[C@]12CCC(=O)[C@H]3/C(=C/c1ccccc1)C2 as the compound, how does the Ki read?
A: 0.08

Q: For COc1ccc2c(c1O)[C@]13CCN(C)C(C2)[C@@]12CC(=C(C)C)[C@@H]3c1[nH]c3ccccc3c1C2, which Ki is on record?
A: 3.2

Q: How did the Ki turn out when COc1ccc2c(c1O)[C@]13CCN(C)C(C2)[C@@]12C/C(=C(/C)c1ccccc1)[C@@H]3c1[nH]c3ccccc3c1C2 was run?
A: 0.6

Q: For CN1CC[C@]23c4c5ccc(O)c4O[C@@]2(C)c2[nH]c4ccccc4c2C[C@@]3(C/C=C/c2ccccc2)C1C5, which Ki is on record?
A: 3.5

molecular target: T2, Mu-type opioid receptor; assay: Binding affinity for human Opioid receptor mu 1 transfected into chinese hamster ovary cells by displacing [3H]DAMGO radioligand; type: cell-based

Q: COc1ccc2c(c1O)[C@]13CCN(C)C(C2)[C@]12CCC(=O)[C@H]3/C(=C/c1ccccc1)C2 was tested. Which Ki did it give?
A: 0.00043 µM

Q: With COc1ccc2c(c1O)[C@]13CCN(C)C(C2)[C@@]12CC(=C(C)C)[C@@H]3c1[nH]c3ccccc3c1C2 as the compound, how does the Ki read?
A: 0.33 µM

Q: How did the Ki turn out when COc1ccc2c(c1O)[C@]13CCN(C)C(C2)[C@@]12C/C(=C(/C)c1ccccc1)[C@@H]3c1[nH]c3ccccc3c1C2 was run?
A: 0.0134 µM

Q: For CN1CC[C@]23c4c5ccc(O)c4O[C@@]2(C)c2[nH]c4ccccc4c2C[C@@]3(C/C=C/c2ccccc2)C1C5, which Ki is on record?
A: 0.0438 µM

molecular target: T3, Kappa-type opioid receptor; assay: Binding affinity in recombinant human Opioid receptor kappa 1 transfected into chinese hamster ovary cells by displacing [3H]U-69593 radioligand; type: cell-based

Q: COc1ccc2c(c1O)[C@]13CCN(C)C(C2)[C@]12CCC(=O)[C@H]3/C(=C/c1ccccc1)C2 was tested. Which Ki did it give?
A: 0.0002 µM

Q: With COc1ccc2c(c1O)[C@]13CCN(C)C(C2)[C@@]12CC(=C(C)C)[C@@H]3c1[nH]c3ccccc3c1C2 as the compound, how does the Ki read?
A: 0.0284 µM

Q: How did the Ki turn out when COc1ccc2c(c1O)[C@]13CCN(C)C(C2)[C@@]12C/C(=C(/C)c1ccccc1)[C@@H]3c1[nH]c3ccccc3c1C2 was run?
A: 0.00061 µM

Q: How did the Ki turn out when CN1CC[C@]23c4c5ccc(O)c4O[C@@]2(C)c2[nH]c4ccccc4c2C[C@@]3(C/C=C/c2ccccc2)C1C5 was run?
A: 0.0942 µM

molecular target: Opioid receptors; delta & kappa (Homo sapiens, UniProt P41145+P41143); assay: Ratio of kappa/delta-opioid receptors Binding affinity; type: protein assay

Q: For COc1ccc2c(c1O)[C@]13CCN(C)C(C2)[C@]12CCC(=O)[C@H]3/C(=C/c1ccccc1)C2, which Ki is on record?
A: 0.04

Q: How did the Ki turn out when COc1ccc2c(c1O)[C@]13CCN(C)C(C2)[C@@]12CC(=C(C)C)[C@@H]3c1[nH]c3ccccc3c1C2 was run?
A: 0.3

Q: Which Ki does the source give for COc1ccc2c(c1O)[C@]13CCN(C)C(C2)[C@@]12C/C(=C(/C)c1ccccc1)[C@@H]3c1[nH]c3ccccc3c1C2 here?
A: 0.03

Q: For CN1CC[C@]23c4c5ccc(O)c4O[C@@]2(C)c2[nH]c4ccccc4c2C[C@@]3(C/C=C/c2ccccc2)C1C5, which Ki is on record?
A: 7.5

molecular target: T2, Mu-type opioid receptor; assay: Effective concentration agonistic activity towards Opioid receptor mu 1; type: functional

Q: For COc1ccc2c(c1O)[C@]13CCN(C)C(C2)[C@]12CCC(=O)[C@H]3/C(=C/c1ccccc1)C2, which EC50 is on record?
A: 0.0067 µM

Q: For COc1ccc2c(c1O)[C@]13CCN(C)C(C2)[C@@]12CC(=C(C)C)[C@@H]3c1[nH]c3ccccc3c1C2, which EC50 is on record?
A: 1.02 µM

Q: With COc1ccc2c(c1O)[C@]13CCN(C)C(C2)[C@@]12C/C(=C(/C)c1ccccc1)[C@@H]3c1[nH]c3ccccc3c1C2 as the compound, how does the EC50 read?
A: 0.139 µM

Q: For CN1CC[C@]23c4c5ccc(O)c4O[C@@]2(C)c2[nH]c4ccccc4c2C[C@@]3(C/C=C/c2ccccc2)C1C5, which EC50 is on record?
A: 0.804 µM

molecular target: T3, Kappa-type opioid receptor; assay: Agonistic activity towards Opioid receptor kappa 1; type: functional

Q: With COc1ccc2c(c1O)[C@]13CCN(C)C(C2)[C@]12CCC(=O)[C@H]3/C(=C/c1ccccc1)C2 as the compound, how does the EC50 read?
A: 0.0175 µM

Q: Which EC50 does the source give for COc1ccc2c(c1O)[C@]13CCN(C)C(C2)[C@@]12CC(=C(C)C)[C@@H]3c1[nH]c3ccccc3c1C2 here?
A: 0.866 µM

Q: For COc1ccc2c(c1O)[C@]13CCN(C)C(C2)[C@@]12C/C(=C(/C)c1ccccc1)[C@@H]3c1[nH]c3ccccc3c1C2, which EC50 is on record?
A: 0.0824 µM

Q: CN1CC[C@]23c4c5ccc(O)c4O[C@@]2(C)c2[nH]c4ccccc4c2C[C@@]3(C/C=C/c2ccccc2)C1C5 was tested. Which EC50 did it give?
A: 2.05 µM

molecular target: T1, Delta-type opioid receptor; assay: Binding affinity for human Opioid receptor delta 1 transfected into chinese hamster ovary cells by displacing [3H]CI-DPDPE radioligand; type: cell-based

Q: With COc1ccc2c(c1O)[C@]13CCN(C)C(C2)[C@]12CCC(=O)[C@H]3/C(=C/c1ccccc1)C2 as the compound, how does the Ki read?
A: 0.0055 µM

Q: For COc1ccc2c(c1O)[C@]13CCN(C)C(C2)[C@@]12CC(=C(C)C)[C@@H]3c1[nH]c3ccccc3c1C2, which Ki is on record?
A: 0.103 µM

Q: Which Ki does the source give for COc1ccc2c(c1O)[C@]13CCN(C)C(C2)[C@@]12C/C(=C(/C)c1ccccc1)[C@@H]3c1[nH]c3ccccc3c1C2 here?
A: 0.0232 µM

Q: With CN1CC[C@]23c4c5ccc(O)c4O[C@@]2(C)c2[nH]c4ccccc4c2C[C@@]3(C/C=C/c2ccccc2)C1C5 as the compound, how does the Ki read?
A: 0.0125 µM
